Laboratory results as given in patent US7282494B2, “Heteroaryl diazacycloalkanes, their preparation and use” (Neurosearch A/S, priority 1909, dated 2007).
Counter-ions that a name gives are not always drawn. Like-named read-outs stand apart in the source and are kept apart here.

Tests used:
[1] = target: nAChR formed by the α7 subunit isoform (Rattus norvegicus, UniProt Q05941); experiment: In vitro inhibition of 3H-α-bungarotoxine binding rat brain (Assay III)
[2] = target: T1, neuronal nicotinic receptors (3H-epibatidine binding sites; high affinity site α4β2 subtype) (Rattus norvegicus, UniProt P09483+P12390); experiment: biochemical
T1 sequence (P09483 31-630): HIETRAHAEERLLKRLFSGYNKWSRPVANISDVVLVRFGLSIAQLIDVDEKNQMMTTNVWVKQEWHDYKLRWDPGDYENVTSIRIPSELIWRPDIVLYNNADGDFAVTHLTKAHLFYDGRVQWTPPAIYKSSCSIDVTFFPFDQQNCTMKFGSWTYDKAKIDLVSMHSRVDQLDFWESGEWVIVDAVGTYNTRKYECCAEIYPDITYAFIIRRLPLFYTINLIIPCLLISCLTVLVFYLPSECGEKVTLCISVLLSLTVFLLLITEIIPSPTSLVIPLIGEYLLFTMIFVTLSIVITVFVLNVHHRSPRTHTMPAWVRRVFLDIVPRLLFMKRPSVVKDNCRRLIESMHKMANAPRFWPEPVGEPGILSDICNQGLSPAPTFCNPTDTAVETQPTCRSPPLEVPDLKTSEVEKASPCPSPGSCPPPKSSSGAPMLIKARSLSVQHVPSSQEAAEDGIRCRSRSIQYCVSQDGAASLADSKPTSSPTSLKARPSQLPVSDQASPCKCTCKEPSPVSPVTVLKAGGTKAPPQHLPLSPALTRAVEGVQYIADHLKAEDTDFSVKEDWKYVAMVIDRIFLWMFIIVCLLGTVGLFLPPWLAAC
T1 sequence (P12390 25-500): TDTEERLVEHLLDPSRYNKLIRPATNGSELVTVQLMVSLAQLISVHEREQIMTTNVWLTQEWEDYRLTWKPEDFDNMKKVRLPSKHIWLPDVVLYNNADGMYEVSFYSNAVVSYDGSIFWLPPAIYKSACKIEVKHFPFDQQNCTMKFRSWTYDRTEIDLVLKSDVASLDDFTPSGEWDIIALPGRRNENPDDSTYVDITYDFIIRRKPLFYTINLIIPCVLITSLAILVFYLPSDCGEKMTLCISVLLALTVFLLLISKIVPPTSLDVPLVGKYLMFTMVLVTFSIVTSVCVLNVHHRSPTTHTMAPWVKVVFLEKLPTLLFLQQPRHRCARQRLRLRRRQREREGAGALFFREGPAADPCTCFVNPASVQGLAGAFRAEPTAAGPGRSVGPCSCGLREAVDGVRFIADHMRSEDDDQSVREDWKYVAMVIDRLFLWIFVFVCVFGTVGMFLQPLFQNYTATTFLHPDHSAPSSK

[3] = target: T1, neuronal nicotinic receptors (3H-epibatidine binding sites; high affinity site α4β2 subtype)
[4] = 3H-α-bungarotoxine 2 nM, cerebral cortices from male Wistar rats, 2 h at 37° C., read-out: Assay III IC50

Sequence of nAChR formed by the α7 subunit isoform (Q05941 23-502): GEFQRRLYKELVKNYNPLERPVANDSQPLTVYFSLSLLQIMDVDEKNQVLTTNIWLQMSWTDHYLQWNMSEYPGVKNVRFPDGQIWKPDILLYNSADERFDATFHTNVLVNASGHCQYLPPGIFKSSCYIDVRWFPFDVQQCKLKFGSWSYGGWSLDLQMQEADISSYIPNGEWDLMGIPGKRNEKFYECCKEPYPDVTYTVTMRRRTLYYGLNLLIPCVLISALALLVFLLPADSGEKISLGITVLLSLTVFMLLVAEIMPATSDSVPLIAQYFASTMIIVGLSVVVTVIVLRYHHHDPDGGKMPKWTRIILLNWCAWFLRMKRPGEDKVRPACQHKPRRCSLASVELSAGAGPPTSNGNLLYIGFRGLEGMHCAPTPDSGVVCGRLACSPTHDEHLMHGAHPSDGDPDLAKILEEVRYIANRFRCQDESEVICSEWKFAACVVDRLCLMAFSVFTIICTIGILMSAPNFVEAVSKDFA

| Structure (SMILES) | melting point [°C] | IC50 [1, 4] [nM] | IC50 [2] [nM] | also measured |
| --- | --- | --- | --- | --- |
| CCCCCOc1cncc(N2CCN(C)CC2)c1 (as salt: fumaric acid salt) | 113.6 to 115.1 |  |  |  |
| C=COc1cc(N2CCCNCC2)cnc1Br (as salt: fumaric acid salt) | 128.6 |  |  |  |
| C=COc1cc(N2CCCNCC2)cnc1Cl (as salt: fumaric acid salt) | 183 to 185 |  |  |  |
| Ic1cncc(N2CCCNCC2)c1 (as salt: fumaric acid salt) | 178 to 180 |  |  |  |
| COc1cc(N2CCCNCC2)cnc1Br (as salt: fumaric acid salt) | 210 to 212 |  |  |  |
| CCOc1cncc(N2CCCN(c3cncc(OCC)c3)CC2)c1 (as salt: fumaric acid salt) | 155 to 156 |  |  |  |
| C=COc1cncc(N2CCCN(c3cncc(OC=C)c3)CC2)c1 (as salt: fumaric acid salt) | 157 to 158.5 |  |  |  |
| c1ncc(N2CCCNCC2)cc1N1CCC1 (as salt: fumaric acid salt) | 143.5 to 146.9 |  |  |  |
| Clc1cncc(N2CCCNCCC2)c1 (as salt: fumaric acid salt) | 186 to 187 |  |  |  |
| Brc1cncc(N2CCCNCCC2)c1 (as salt: fumaric acid salt) | 151 to 153 |  |  |  |
| Brc1cc(N2CCCNCC2)cnc1Br (as salt: fumaric acid salt) [1-(5,6-Dibromo-3-pyridyl)-homopiperazine] | 192.1 to 193.2 |  |  |  |
| Clc1cc(N2CCCNCC2)cnc1Cl (as salt: fumaric acid salt) [1-(5,6-Dichloro-3-pyridyl)-homopiperazine] | 172.2 to 173.4 |  |  |  |
| Clc1ncc(N2CCCNCC2)cc1Br (as salt: fumaric acid salt) [1-(5-Bromo-6-chloro-3-pyridyl)-homopiperazine] | 188.2 to 189.2 |  |  |  |
| C(#Cc1cncc(N2CCCNCC2)c1)c1ccccc1 (as salt: fumaric acid salt) [1-(5-Phenylacetylenyl-3-pyridyl)-homopiperazine] | 155.2 to 157.8 |  |  |  |
| Brc1ccc(N2CCCNCC2)nn1 (as salt: fumaric acid salt) [1-(6-Bromo-3-pyridazinyl)-homopiperazine] | 169 to 171 |  |  |  |
| Clc1cc(N2CCCNCC2)cnc1Br (as salt: fumaric acid salt) [1-(6-Bromo-5-chloro-3-pyridyl)-homopiperazine] | 213 to 216 |  |  |  |
| C=CC(C)Oc1cncc(N2CCCNCC2)c1 (stereo not shown) (as salt: fumaric acid salt) [1-[5-(1-Methyl-1-prop-2-en-oxy)-3-pyridyl]-homopiperazine] | 129.5 to 133.6 |  |  |  |
| CCC(CC)COc1cncc(N2CCCNCC2)c1 (as salt: fumaric acid salt) [1-[5-(2-Ethyl-1-butoxy)-3-pyridyl]-homopiperazine] | 113.7 to 115.9 |  |  |  |
| c1ncc(N2CCCNCC2)cc1OCC1CCC1 (as salt: fumaric acid salt) [1-[5-(Cyclobutylmethoxy)-3-pyridyl]-homopiperazine] | 158.9 to 159.9 |  |  |  |

| Structure (SMILES) | melting point [°C] | IC50 [1, 4] [nM] | IC50 [2] [nM] | also measured |
| --- | --- | --- | --- | --- |
| CCCC=CCOc1cncc(N2CCCNCC2)c1 (as salt: fumaric acid salt) [1-[5-(Hex-2-en-ox)-3-pyridyl]-homopiperazine] | 126.8 to 130.2 |  |  |  |
| CCCCN(C)c1cncc(N2CCCNCC2)c1 (as salt: fumaric acid salt) [1-[5-(N-Butyl-N-methylamino)-3-pyridyl]homopiperazine] | 140.5 to 141.8 |  |  |  |
| c1ncc(N2CCCNCC2)cc1N1CCCC1 (as salt: fumaric acid salt) [1-[5-(N-pyrrolidinyl)-3-pyridyl]-homopiperazine] | 141.5 to 143 |  |  |  |
| Brc1cc(N2CCCNCC2)cnc1Br [1-(5,6-Dibromo-3-pyridyl)-homopiperazine] |  | 3000 | 1 |  |
| Clc1cc(N2CCCNCC2)cnc1Cl [1-(5,6-Dichloro-3-pyridyl)-homopiperazine] |  | < 3000 | 2 |  |
| Clc1ncc(N2CCCNCC2)cc1Br [1-(5-Bromo-6-chloro-3-pyridyl)-homopiperazine] |  | < 3000 | 1 |  |
| C=CCN1CCCN(c2cncc(OCC)c2)CC1 [1-(5-Ethoxy-3-pyridyl)-4-(prop-2-en-1-yl-)-homopiperazine] |  |  |  | IC50 [1]: > 30000 nM |
| CCOc1cncc(N2CCCN(CC)CC2)c1 [1-(5-Ethoxy-3-pyridyl)-4-ethyl-homopiperazine] |  |  |  | IC50 [1]: > 30000 nM |
| C(#Cc1cncc(N2CCCNCC2)c1)c1ccccc1 [1-(5-Phenylacetylenyl-3-pyridyl)-homopiperazine] |  | 11000 | 5 |  |
| Brc1ccc(N2CCCNCC2)nn1 [1-(6-Bromo-3-pyridazinyl)-homopiperazine] |  | 1500 | 70 |  |
| Clc1cc(N2CCCNCC2)cnc1Br [1-(6-Bromo-5-chloro-3-pyridyl)-homopiperazine] |  | < 3000 | 2 |  |
| C=CC(C)Oc1cncc(N2CCCNCC2)c1 (stereo not shown) [1-[5-(1-Methyl-1-prop-2-en-oxy)-3-pyridyl]-homopiperazine] |  | 11000 | 52 |  |
| CCC(CC)COc1cncc(N2CCCNCC2)c1 [1-[5-(2-Ethyl-1-butoxy)-3-pyridyl]-homopiperazine] |  | > 30000 | 13 |  |
| CC(C)=COc1cncc(N2CCCNCC2)c1 [1-[5-(2-Methyl-1-prop-1-en-oxy)-3-pridyl]-homopiperazine] |  | 85000 |  | IC50 [3]: 20 nM |
| CCCCOc1cncc(N2CCCNCCC2)c1 [1-[5-(Butoxy)-3-pyridyl]-1,5-diazacyclooctane] |  |  | 3 |  |
| c1ncc(N2CCCNCC2)cc1OCC1CCC1 [1-[5-(Cyclobutylmethoxy)-3-pyridyl]-homopiperazine] |  | > 30000 | 4 |  |
| CCCC=CCOc1cncc(N2CCCNCC2)c1 [1-[5-(Hex-2-en-ox)-3-pyridyl]-homopiperazine] |  | 47000 | 8 |  |
| c1ncc(N2CCCNCC2)cc1N1CCCC1 [1-[5-(N-pyrrolidinyl)-3-pyridyl]-homopiperazine] |  | 5000 | 40 |  |
| CC1OC1Oc1cncc(N2CCCNCC2)c1 (stereo not shown) [1-[5-(Propyl-1,2-epoxy-1-oxy)-3-pyridyl]-homopiperazine] | 135.2 to 139 | 58000 | 40 |  |
